Data reported in patent publication US11065314B2, “Peptides and combination of peptides for use in immunotherapy against breast cancer and other cancers” (Immatics Biotechnologies GmbH, priority 2015, dated 2021).

What was measured:
[1] = system: CD8+ T cells of healthy HLA-A*02 donors; assay: In vitro T-cell priming (aAPC with pMHC and anti-CD28), pMHC multimer readout; assay type: cell-based, human; details: HLA-A*02 restricted peptides, positive wells and donors among evaluable, Table 10B
Source text: In order to obtain information regarding the immunogenicity of the TUMAPs of the present invention, the inventors performed investigations using an in vitro T-cell priming assay based on repeated stimulations of CD8+ T cells with artificial antigen presenting cells (aAPCs) loaded with peptide/MHC complexes and anti-CD28 antibody.
In order to perform in vitro stimulations by artificial antigen presenting cells loaded with peptide-MHC complex (pMHC) and anti-CD28 antibody, the inventors first isolated CD8+ T cells from fresh HLA-A*02 leukapheresis products via positive selection using CD8 microbeads (Miltenyi Biotec, Bergisch-Gladbach, Germany) of healthy donors obtained from the University clinics Mannheim, Germany, after informed consent.
PBMCs and isolated CD8+ lymphocytes were incubated in T-cell medium (TCM) until use consisting of RPMI-Glutamax (Invitrogen, Karlsruhe, Germany) supplemented with 10% heat inactivated human AB serum (PAN-Biotech, Aidenbach, Germany), 100 U/ml Penicillin/100 μg/ml Streptomycin (Cambrex, Cologne, Germany), 1 mM sodium pyruvate (CC Pro, Oberdorla, Germany), 20 μg/ml Gentamycin (Cambrex). 2.5 ng/ml IL-7 (PromoCell, Heidelberg, Germany) and 10 U/ml IL-2 (Novartis Pharma, Nümberg, Germany) were also added to the TCM at this step.
Generation of pMHC/anti-CD28 coated beads, T-cell stimulations and readout was performed in a highly defined in vitro system using four different pMHC molecules per stimulation condition and 8 different pMHC molecules per readout condition.
The purified co-stimulatory mouse IgG2a anti human CD28 Ab 9.3 (Jung et al., 1987) was chemically biotinylated using Sulfo-N-hydroxysuccinimidobiotin as recommended by the manufacturer (Perbio, Bonn, Germany). Beads used were 5.6 μm diameter streptavidin coated polystyrene particles (Bangs Laboratories, Illinois, USA).
800.000 beads/200 μl were coated in 96-well plates in the presence of 4×12.5 ng different biotin-pMHC, washed and 600 ng biotin anti-CD28 were added subsequently in a volume of 200 μl. Stimulations were initiated in 96-well plates by co-incubating 1×10^6 CD8+ T cells with 2×10^5 washed coated beads in 200 μl TCM supplemented with 5 ng/ml IL-12 (PromoCell) for 3 days at 37° C. Half of the medium was then exchanged by fresh TCM supplemented with 80 U/ml IL-2 and incubating was continued for 4 days at 37° C. This stimulation cycle was performed for a total of three times. For the pMHC multimer readout using 8 different pMHC molecules per condition, a two-dimensional combinatorial coding approach was used as previously described (Andersen et al., 2012) with minor modifications encompassing coupling to 5 different fluorochromes. Finally, multimeric analyses were performed by staining the cells with Live/dead near IR dye (Invitrogen, Karlsruhe, Germany), CD8-FITC antibody clone SK1 (BD, Heidelberg, Germany) and fluorescent pMHC multimers. For analysis, a BD LSRII SORP cytometer equipped with appropriate lasers and filters was used. Peptide specific cells were calculated as percentage of total CD8+ cells. Evaluation of multimeric analysis was done using the FlowJo software (Tree Star, Oregon, USA). In vitro priming of specific multimer+CD8+ lymphocytes was detected by comparing to negative control stimulations.

HLA-A*02:01 = HLA-A*02:01 (Homo sapiens, UniProt P04439, D140Y/D185E/D98H/E176V/E277Q/G131W/G231S/I119V/I121R/I166T/I218V/L300P/L318F/N151K/N90K/P208A/P217A/Q86G/Q94H/R138H/R169H/T345S); assay: MHC binding assay: UV-ligand exchange with β2m ELISA; details: binding to HLA-A*02:01, UV-ligand exchange
Source text: Candidate peptides for T cell based therapies according to the present invention were further tested for their MHC binding capacity (affinity). The individual peptide-MHC complexes were produced by UV-ligand exchange, where a UV-sensitive peptide is cleaved upon UV-irradiation, and exchanged with the peptide of interest as analyzed. Only peptide candidates that can effectively bind and stabilize the peptide-receptive MHC molecules prevent dissociation of the MHC complexes. To determine the yield of the exchange reaction, an ELISA was performed based on the detection of the light chain (β2m) of stabilized MHC complexes. The assay was performed as generally described in Rodenko et al. (Rodenko et al., 2006).
96 well MAXISorp plates (NUNC) were coated over night with 2 ug/ml streptavidin in PBS at room temperature, washed 4× and blocked for 1 h at 37° C. in 2% BSA containing blocking buffer. Refolded HLA-A*02:01/MLA-001 monomers served as standards, covering the range of 15-500 ng/ml. Peptide-MHC monomers of the UV-exchange reaction were diluted 100-fold in blocking buffer. Samples were incubated for 1 h at 37° C., washed four times, incubated with 2 ug/ml HRP conjugated anti-β2m for 1 h at 37° C., washed again and detected with TMB solution that is stopped with […]. Absorption was measured at 450 nm. Candidate peptides that show a high exchange yield (preferably higher than 50%, most preferred higher than 75%) are generally preferred for a generation and production of antibodies or fragments thereof, and/or T cell receptors or fragments thereof, as they show sufficient avidity to the MHC molecules and prevent dissociation of the MHC complexes.

For “SLADAVEKV (listed as Homo sapiens) [SEQ ID NO: 23, HLA-A*02 peptide, source gene CCDC122]”, the “Wells positive [%]” value [1] was ““+++” (50%-69% = +++)” and the “Peptide Exchange (peptide exchange yield)” value (shortened to “Peptide Exchange”) (HLA-A*02:01) was ““+++” (≥50 = +++)”.

“GLLGFQAEA (listed as Homo sapiens) [SEQ ID NO: 24, HLA-A*02 peptide, source gene MAGED1]” was tested, and the “Wells positive [%]” value [1] was ““++” (20%-49% = ++)” and the “Peptide Exchange” value (HLA-A*02:01) was ““++++” (≥75% = ++++)”.

For “ALAGSSPQV (listed as Homo sapiens) [SEQ ID NO: 2, HLA-A*02 peptide, source gene CNTD2]”, the “Wells positive [%]” value [1] was ““++” (20%-49% = ++)” and the “Peptide Exchange” value (HLA-A*02:01) was ““+++” (≥50 = +++)”.

In the case of “SLLTEPALV (listed as Homo sapiens) [SEQ ID NO: 21, HLA-A*02 peptide, source gene TBC1D9]”, the “Wells positive [%]” value [1] is reported as ““++” (20%-49% = ++)” and the “Peptide Exchange” value (HLA-A*02:01) is reported as ““+++” (≥50 = +++)”.

For “KMPEHISTV (listed as Homo sapiens) [SEQ ID NO: 1, HLA-A*02 peptide, source gene CILP]”, the “Wells positive [%]” value [1] was ““+” (<20% = +)” and the “Peptide Exchange” value (HLA-A*02:01) was ““+++” (≥50 = +++)”.

With “YIDGLESRV (listed as Homo sapiens) [SEQ ID NO: 22, HLA-A*02 peptide, source gene CREB3L4]” the “Wells positive [%]” value [1] was ““+” (<20% = +)” and the “Peptide Exchange” value (HLA-A*02:01) was ““+++” (≥50 = +++)”.
